Measurements reported in patent US20200108066A1, “METHODS FOR MODULATING REGULATORY T CELLS AND IMMUNE RESPONSES USING CDK4/6 INHIBITORS” (Dana-Farber Cancer Institute, Inc., priority 2017, published 2020).

How the values were obtained:
[1] = tested on: MMTV-rtTA/tetO-HER2 tumors; test: Tumor growth in MMTV-rtTA/tetO-HER2 transgenic mice; type: in vivo, mouse; conditions: bulky tumors growing prior to treatment; three independent experiments
Source text: Tumor formation was induced in MMTV-rtTA/tetO-HER2 mice with doxycycline as previously described in Goel et al. (2016) Cancer Cell 29:255-269. Female FVB mice (7 weeks of age) were purchased from Taconic Biosciences (Hudson, N.Y.). Female J:NU nude mice (8 weeks of age) were purchased from Jackson Labs (Bar Harbor, Me.). FVB CD45.2+ mice used as a source of T cells for in vitro studies were a kind gift from Dr. Daniel Tenen. For tumor growth studies in J:NU mice, MMTV-rtTA/tetO-HER2 tumor explants were orthotopically implanted bilaterally into nude mice, as previously described in Goel et al. (2016), supra. […] For tumor experiments in transgenic MMTV-rtTA/tetO-HER2 mice, tumors measured between 5 mm and 15 mm when treatment was begun. Mice were assigned into treatment groups so that the distribution of tumor volumes was even between groups. Tumor volume was calculated as previously described in Goel et al. (2016), supra and tumors were measured by caliper 2-3 times per week. For tumor growth curve analysis, one-way ANOVA tests were performed with correction for multiple comparisons using Sidak's multiple comparisons test. […]

[2] = tested on: MMTV-rtTA/tetO-HER2 tumors; test: Gene expression (transcriptome, qPCR) in MMTV-rtTA/tetO-HER2 tumor tissue; type: in vivo, mouse
MDA-MB-453 cells = test: Expression analysis (transcriptome, qPCR, Western blot, ELISA) in MDA-MB-453 cells treated in vitro; type: cell-based, human; conditions: SASP gene, abemaciclib 500 nM, 7 days, relative to DMSO
[3] = Plasma autoantibody ELISAs (anti-ANA, anti-dsDNA); type: in vivo, mouse; conditions: tumor-free and tumor-bearing mice, 12 days
Protocol: For the last 24 hours, the culture media was replaced with serum free media. Following concentration of conditioned media using Amicon® Ultra centrifugal filters (Millipore, Billerica, Mass.), cytokines were analyzed according to the manufacturer's recommendations using the following kits: human IFN gamma ELISA Ready-SET-Go!® (Affymetrix eBioscience), human TNF alpha ELISA Ready-SET-Go!® (Affymetrix eBioscience), Verikine human IFN alpha ELISA kit (PBL assay science, Piscataway, N.J.), VeriKine-HS human IFN beta serum ELISA kit (PBL assay science), human IL-28B quantikine ELISA kit (R&D Systems, Minneapolis, Minn.), human […] Systems), and human IL-29 DuoSet ELISA (R&D Systems). Anti-ANA and anti-dsDNA ELISAs (Alpha Diagnostic, San Antonio, Tex.) were performed according to the manufacturer's instructions on plasma isolated from tumor free or tumor-bearing mice. Absorbance was measured on a SynergyTM Neo plate reader (BioTek, Winooski, Vt.) using Gen5TM software.

thymocytes = test: Thymic mass and thymic cell populations in tumor-free FVB mice; type: in vivo, mouse; conditions: 12 days
Protocol: FIG. 10 includes 9 panels, identified as panels A, B, C, D, E, F, G, H, and I, which show the impact of CDK4/6 inhibition on immune cell populations and Treg biology. […] Panel C compares thymic mass with or without abemaciclib/palbociclib treatment. Thymic cell populations were quantified by flow cytometry.
Following mechanical digestion and RBC lysis, single cell suspensions were blocked with anti-CD16/32 for 20 minutes on ice. Cells were incubated with appropriate antibodies for 30 minutes on ice.
Murine antibodies used for flow cytometry include those recognizing CD45 (clone 30-F11), CD3 (clone 145-2C11), CD8 (clone 53-6.7), CD4 (clone RM4-5), PD-1 (clone 29F.1A12), Tim-3 (clone RMT3-23), CTLA-4 (clone UC10-4B9), LAG-3 (clone C9B7W), B220 (clone RA3-6B2), NK1.1 (clone PK136), CD11b (clone M1/70), Ly6G (clone 1A8), Ly6C (clone AL-21), FoxP3 (clone FJK-16s), and Ki-67 (clone 16A8). Human antibodies used for flow cytometry were those recognizing β2-microglobulin (clone 2M2) and HLA-A, B, C (clone W6/32). Antibodies were purchased from Biolegend with the exception of anti-FoxP3 from eBioscience and anti-Ly6C from BD Pharmigen. All antibodies used for flow cytometry were directly conjugated to fluorophores. […] Flow cytometry was performed on a LSRII (BD Biosciences, San Jose, Calif.) or FACSCANTOII (BD Biosciences), and data was analyzed using FlowJo® (TreeStar).

[4] = tested on: tumor-infiltrating CD8+ and CD4+ T cells; test: Inhibitory co-receptor expression on intratumoral T cells (flow cytometry); type: in vivo, mouse
Protocol: Tumors were first mechanically disrupted by chopping, then chemically digested in dissociation buffer (2 mg/mL collagenase type IV (Worthington Biochemical, Lakewood, N.J.), 0.02 mg/mL DNase (Sigma Aldrich) in DMEM (Life Technologies) containing 5% FBS (Life Technologies), PenStrep (Hyclone)) with agitation at 37° C. for 45 minutes. After RBC lysis, single cell suspensions were blocked with anti-CD16/32 for 20 minutes on ice. Then, cells were incubated with the appropriate antibodies for 30 minutes on ice.
Murine antibodies used for flow cytometry include those recognizing CD45 (clone 30-F11), CD3 (clone 145-2C11), CD8 (clone 53-6.7), CD4 (clone RM4-5), PD-1 (clone 29F.1A12), Tim-3 (clone RMT3-23), CTLA-4 (clone UC10-4B9), LAG-3 (clone C9B7W), B220 (clone RA3-6B2), NK1.1 (clone PK136), CD11b (clone M1/70), Ly6G (clone 1A8), Ly6C (clone AL-21), FoxP3 (clone FJK-16s), and Ki-67 (clone 16A8). Human antibodies used for flow cytometry were those recognizing β2-microglobulin (clone 2M2) and HLA-A, B, C (clone W6/32). Antibodies were purchased from Biolegend with the exception of anti-FoxP3 from eBioscience and anti-Ly6C from BD Pharmigen. All antibodies used for flow cytometry were directly conjugated to fluorophores. The anti-mouse/rat FoxP3 staining set (eBioscience) was used for intracellular staining according to the manufacturer's instructions. 7AAD was used to distinguish live/dead cells, except for analyses requiring intracellular staining when eFluor® 450 fixable viability dye (eBioscience) or Zombie Yellow™ fixable viability dye (Biolegend) were used. To determine the absolute number of cells in a sample, CountBright™ absolute counting beads (Molecular Probes, ThermoFisher) were added. Flow cytometry was performed on a LSRII (BD Biosciences, San Jose, Calif.) or FACSCANTOII (BD Biosciences), and data was analyzed using FlowJo® (TreeStar).
Furthermore, the mRNA level of Ifng (the main effector cytokine of cytotoxic T cells) was more than 4-fold higher in treated bulk tumor tissue (FIG. 13D).

[5] = tested on: MMTV-rtTA/tetO-HER2 tumors; test: Combined abemaciclib and anti-PD-L1 therapy in MMTV-rtTA/tetO-HER2 tumor bearing mice; type: in vivo, mouse
Protocol: After 3 days, the dose was dropped to 75 mg/kg daily and treatment with an anti-PD-L1 antibody (200 μg by intraperitoneal injection every 72 hours; BioXcell, clone 10F.9G2) or an isotype control antibody (200 μg by intraperitoneal injection every 72 hours) was commenced. Mice were euthanized using CO2 inhalation, and all mouse experiments were performed in accordance with protocols approved by the Institutional Animal Care and Use Committees of Dana-Farber Cancer Institute, Harvard Medical School, and Boston Children's Hospital.

[6] = tested on: MDA-MB-453 and BT474 cells; test: Doxorubicin-induced senescence; type: cell-based, human; conditions: doxorubicin 200 nM 24 h, RNA 72 hours later
Protocol: MDA-MB-453 and BT474 cells were treated with doxorubicin (Sigma Aldrich, 200 nM) for a period of 24 hrs. The cells were then cultured in fresh media for 72 hours after treatment, and RNA was extracted for qPCR.

Row | SMILES | average reduction in tumor volume at the 12-day end point [1] | Fold change (abema vs DMSO treatment): COL1A1 ([2]; SASP gene, MMTV-rtTA/tetO-HER2 tumors, abemaciclib 12 days, relative to vehicle) | mRNA level of Ifng in bulk tumor tissue, treated vs vehicle ([2]; qPCR) | Fold change (abema vs DMSO treatment): COL1A1 (MDA-MB-453 cells) | autoimmune phenotype: anti-nuclear antibody (ANA) or anti-dsDNA antibody levels [3] | total thymic mass (thymocytes) | fractions of PD-1high and PD-1+/TIM-3+ cytotoxic T cells ([4]; 6 days treatment vs vehicle) | number of inhibitory receptors detected on any given cytotoxic T cell ([4]; 6 days treatment vs vehicle) | reduction of PD-1+/TIM-3+ cytotoxic T cell fraction ([4]; 6 days treatment vs vehicle) | CD8+ cells expressing none of the inhibitory receptors ([4]; abemaciclib treated tumors, 6 days) | average reduction in tumor volume at day 13 of treatment [5] | beta galactosidase and interleukin-6 expression [6]
1 | CCN1CCN(Cc2ccc(Nc3ncc(F)c(-c4cc(F)c5nc(C)n(C(C)C)c5c4)n3)nc2)CC1 [abemaciclib] | 40% | 1.207 fold | more than 4 fold | 0.752 fold | No associated increases | significantly reduced | significantly reduced | lower | 50% | over 50% | 35% | –
2 | COc1cccc2c1C(=O)c1c(O)c3c(c(O)c1C2=O)C[C@@](O)(C(=O)CO)C[C@@H]3O[C@H]1C[C@H](N)[C@H](O)[C@H](C)O1 [doxorubicin] | – | – | – | – | – | – | – | – | – | – | – | increased
3 | CC(=O)c1c(C)c2cnc(Nc3ccc(N4CCNCC4)cn3)nc2n(C2CCCC2)c1=O [palbociclib] | – | – | – | – | – | significantly reduced | – | – | – | – | – | –
